Assay [1] addresses T1, human progesterone receptor B (Homo sapiens, UniProt P06401).
T1 construct: expressed in transfected cells; host or cells: SK-N-MC human neuroblastoma cells, stably transfected with pRChPR-B-neo and pMMTV-LUC
T1 sequence (P06401 1-933): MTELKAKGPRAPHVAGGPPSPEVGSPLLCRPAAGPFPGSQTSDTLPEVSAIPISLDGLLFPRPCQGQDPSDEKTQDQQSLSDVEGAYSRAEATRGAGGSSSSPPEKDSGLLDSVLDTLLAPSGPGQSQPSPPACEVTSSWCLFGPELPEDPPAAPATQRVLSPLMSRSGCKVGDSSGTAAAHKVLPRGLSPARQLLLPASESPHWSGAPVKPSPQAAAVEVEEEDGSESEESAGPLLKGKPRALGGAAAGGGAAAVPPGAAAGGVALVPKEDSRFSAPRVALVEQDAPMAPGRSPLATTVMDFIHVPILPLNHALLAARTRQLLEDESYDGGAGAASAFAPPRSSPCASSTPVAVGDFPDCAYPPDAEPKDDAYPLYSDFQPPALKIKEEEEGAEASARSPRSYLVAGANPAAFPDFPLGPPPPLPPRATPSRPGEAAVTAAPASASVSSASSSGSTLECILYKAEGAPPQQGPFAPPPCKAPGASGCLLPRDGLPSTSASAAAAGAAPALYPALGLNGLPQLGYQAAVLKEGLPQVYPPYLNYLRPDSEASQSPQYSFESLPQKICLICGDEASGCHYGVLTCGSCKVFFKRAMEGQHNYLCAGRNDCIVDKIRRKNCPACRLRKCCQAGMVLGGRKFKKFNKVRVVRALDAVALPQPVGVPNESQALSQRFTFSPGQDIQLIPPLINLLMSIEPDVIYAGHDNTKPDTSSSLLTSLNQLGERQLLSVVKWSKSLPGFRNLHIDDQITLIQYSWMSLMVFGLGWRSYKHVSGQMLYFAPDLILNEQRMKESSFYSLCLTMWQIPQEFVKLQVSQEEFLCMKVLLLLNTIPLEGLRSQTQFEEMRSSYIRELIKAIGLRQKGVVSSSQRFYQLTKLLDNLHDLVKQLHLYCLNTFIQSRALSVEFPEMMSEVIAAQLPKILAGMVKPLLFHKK
The assay can be described thus: Progesterone receptor transactivation test in stably transfected SK-N-MC cells (PR-B, MMTV-LUC reporter). It is filed as cell-based. The conditions noted are these: 24 hours, in presence of 0.1 nmol/l promegestone, luciferase reporter, read-out: PR-B IC50 (antagonistic potency). The method, then:
(§1) Progesterone Receptor-Antagonistic Action in Stable Transfectants of Human Neuroblastoma Cells (SK-N-MC Cells) with the Human Progesterone A or Progesterone B Receptor and an MN-LUC Reporter Construct
(§2) SK-N-MC cells (human neuroblastoma cells) which have been stably transfected with plasmids expressing the human progesterone receptor B (pRChPR-B-neo) or the human progesterone receptor A (pRChPR-A-neo) and a reporter construct (pMMTV-LUC) were incubated for 24 hours either in the absence (negative control) or in the presence of ascending amounts of the particular test compound (0.01 nmol/l, 0.1 nmol/l, 1 nmol/l, 10 nmol/l, 100 nmol/l and […]), in order to determine the agonistic efficacy. As a positive control of the reporter gene induction, the cells were treated with the synthetic gestagen promegestone (0.01 nmol/l, 0.1 nmol/l, 1 nmol/l, 10 nmol/l, 100 nmol/l and […]). To determine the antagonistic activity, the cells were treated with 0.1 nmol/l promegestone and additionally with ascending amounts of the particular test compound (0.01 nmol/l, 0.1 nmol/l, 1 nmol/l, 10 nmol/l, 100 nmol/l and […]). The activity of the reporter gene LUC (LUC=luciferase) was determined in the cell lysates and measured as RLU (relative light units). All measurements are reported as % efficacy and as […] and […] concentrations.
In general terms: In a reporter assay the amount or activity of a reporter protein is the signal.

In assay [2] the target is T2, human progesterone receptor A (Homo sapiens, UniProt P06401).
T2 construct: expressed in transfected cells; host or cells: SK-N-MC human neuroblastoma cells, stably transfected with pRChPR-A-neo and pMMTV-LUC
T2 sequence (P06401 1-769 isoform P06401-2): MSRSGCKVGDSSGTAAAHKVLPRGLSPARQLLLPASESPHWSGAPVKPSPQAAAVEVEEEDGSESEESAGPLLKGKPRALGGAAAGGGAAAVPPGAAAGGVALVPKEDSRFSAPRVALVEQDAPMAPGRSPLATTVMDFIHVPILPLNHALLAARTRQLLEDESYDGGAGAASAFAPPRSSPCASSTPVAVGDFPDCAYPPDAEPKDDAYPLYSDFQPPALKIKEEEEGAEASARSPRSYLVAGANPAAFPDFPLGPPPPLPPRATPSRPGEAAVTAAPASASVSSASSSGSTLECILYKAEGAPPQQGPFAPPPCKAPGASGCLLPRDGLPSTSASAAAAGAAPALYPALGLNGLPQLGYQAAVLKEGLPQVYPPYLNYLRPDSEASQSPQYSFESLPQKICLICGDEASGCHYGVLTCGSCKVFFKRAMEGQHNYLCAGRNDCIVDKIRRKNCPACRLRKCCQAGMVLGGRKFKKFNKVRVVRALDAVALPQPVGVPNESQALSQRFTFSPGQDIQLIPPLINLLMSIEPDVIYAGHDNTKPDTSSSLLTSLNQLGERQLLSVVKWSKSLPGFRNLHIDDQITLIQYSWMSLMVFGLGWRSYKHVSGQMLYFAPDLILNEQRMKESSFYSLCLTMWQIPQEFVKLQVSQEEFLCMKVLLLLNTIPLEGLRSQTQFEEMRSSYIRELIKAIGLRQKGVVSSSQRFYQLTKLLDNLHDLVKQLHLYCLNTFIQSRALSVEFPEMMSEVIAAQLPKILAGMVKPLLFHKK
Nature of the assay: Progesterone receptor transactivation test in stably transfected SK-N-MC cells (PR-A, MMTV-LUC reporter). It is filed as cell-based. The conditions noted are these: 24 hours, in presence of 0.1 nmol/l promegestone, luciferase reporter, read-out: PR-A IC50 (antagonistic potency). On the procedure:
as §1, §2

In general, IC50 refers to the midpoint of a concentration-inhibition curve.

For the molecule `CC(OCCO)c1ccc(C2C[C@@]3(C)C(CC[C@@]3(O)C(F)(F)C(F)(F)F)C3CCC4=CC(=O)CCC4=C23)cc1` (mixture of isomers) [Example 1A, (8S,11R,13S,14S,17S)-17-hydroxy-11-{4-[(1RS)-1-(2-hydroxyethoxy)ethyl]phenyl}-13-methyl-17-pentafluoroethyl-1,2,6,7,8,11,12,13,14,15,16,17-dodecahydro-cyclopenta[a]phenanthren-3-one], the IC50 came to 0.36 nM in assay [1] and 0.12 nM in assay [2].
As for `COC(C)c1ccc(C2C[C@@]3(C)C(CC[C@@]3(O)C(F)(F)C(F)(F)F)C3CCC4=CC(=O)CCC4=C23)cc1` (mixture of isomers) [Example 1B, (8S,11R,13S,14S,17S)-17-hydroxy-11-[4-((1RS)-1-methoxyethyl)phenyl]-13-methyl-17-pentafluoroethyl-1,2,6,7,8,11,12,13,14,15,16,17-dodecahydrocyclopenta[a]phenanthren-3-one], the IC50 in assay [1] and in assay [2] was 0.1 nM throughout.
Regarding `CC(OCC(=O)OC(C)(C)C)c1ccc([C@H]2C[C@@]3(C)C(CC[C@@]3(O)C(F)(F)C(F)(F)F)C3CCC4=CC(=O)CCC4=C32)cc1` (mixture of isomers) [Example 2, {(1RS)-1-[4-((8S,11R,13S,14S,17S)-17-hydroxy-13-methyl-3-oxo-17-pentafluoroethyl-2,3,6,7,8,11,12,13,14,15,16,17-dodecahydro-1H-cyclopenta[a]phenanthren-11-yl)phenyl]ethoxy}acetic acid tert-butyl ester], the figures for the IC50 in assay [1] and in assay [2] were 0.12 nM and 0.1 nM, respectively.
Turning to `CC(OCC(=O)O)c1ccc([C@H]2C[C@@]3(C)C(CC[C@@]3(O)C(F)(F)C(F)(F)F)C3CCC4=CC(=O)CCC4=C32)cc1` (mixture of isomers) [Example 3, {(RS)-1-[4-((8S,11R,13S,14S,17S)-17-hydroxy-13-methyl-3-oxo-17-pentafluoroethyl-2,3,6,7,8,11,12,13,14,15,16,17-dodecahydro-1H-cyclopenta[a]phenanthren-11-yl)phenyl]ethoxy}acetic acid], the IC50 stood at 9.8 nM in assay [1] and 13 nM in assay [2].
For `CC(OCC#N)c1ccc([C@H]2C[C@@]3(C)C(CC[C@@]3(O)C(F)(F)C(F)(F)F)C3CCC4=CC(=O)CCC4=C32)cc1` (mixture of isomers) [Example 5, {(RS)-1-[4-((8S,11R,13S,14S,17S)-17-hydroxy-13-methyl-3-oxo-17-pentafluoroethyl-2,3,6,7,8,11,12,13,14,15,16,17-dodecahydro-1H-cyclopenta[a]phenanthren-11-yl)phenyl]ethoxy}acetonitrile], the IC50 in assay [1] and in assay [2] was 0.1 nM throughout.
As for `Cc1nc2cc(COC(C)c3ccc(C4C[C@@]5(C)C(CC[C@@]5(O)C(F)(F)C(F)(F)F)C5CCC6=CC(=O)CCC6=C45)cc3)ccc2s1` (mixture of isomers) [Example 8, (8S,11R,13S,14S,17S)-17-hydroxy-13-methyl-11-{4-[(RS)-1-(2-methylbenzothiazol-5-ylmethoxy)ethyl]phenyl}-17-pentafluoroethyl-1,2,6,7,8,11,12,13,14,15,16,17-dodecahydro-cyclopenta[a]phenanthren-3-one], the values for the IC50 in assay [1] and in assay [2] were 0.1 nM and 0.06 nM, respectively.
Regarding `CC(C)(C)OC(=O)COCCc1ccc([C@H]2C[C@@]3(C)[C@@H](CC[C@@]3(O)C(F)(F)C(F)(F)F)[C@@H]3CCC4=CC(=O)CCC4=C32)cc1` [Example 4, {2-[4-((8S,11R,13S,14S,17S)-17-hydroxy-13-methyl-3-oxo-17-pentafluoroethyl-2,3,6,7,8,11,12,13,14,15,16,17-dodecahydro-1H-cyclopenta[a]phenanthren-11-yl)-phenyl]ethoxy}acetic acid tert-butyl ester], the IC50 in assay [1] and in assay [2] was 0.1 nM throughout.
Turning to `C[C@]12C[C@H](c3ccc(CCOCC(=O)O)cc3)C3=C4CCC(=O)C=C4CC[C@H]3[C@@H]1CC[C@@]2(O)C(F)(F)C(F)(F)F` [Example 6, {2-[4-((8S,11R,13S,14S,17S)-17-hydroxy-13-methyl-3-oxo-17-pentafluoroethyl-2,3,6,7,8,11,12,13,14,15,16,17-dodecahydro-1H-cyclopenta[a]phenanthren-11-yl)-phenyl]ethoxy}acetic acid], the IC50 in assay [1] was found to be 12 nM; in assay [2], 3 nM.
Take `C[C@]12C[C@H](c3ccc(CCOCCO)cc3)C3=C4CCC(=O)C=C4CC[C@H]3[C@@H]1CC[C@@]2(O)C(F)(F)C(F)(F)F` [Example 7, (8S,11R,13S,14S,17S)-17-hydroxy-11-{4-[2-(2-hydroxyethoxy)ethyl]phenyl}-13-methyl-17-pentafluoroethyl-1,2,6,7,8,11,12,13,14,15,16,17-dodecahydro-cyclopenta[a]phenanthren-3-one]: the half-maximal inhibitory concentration (IC50) in assay [1] and in assay [2] was 0.1 nM each time.

These data come from patent US9096640B2, “17-hydroxy-17-pentafluoroethyl-estra-4,9(10)-diene-11-methylene oxyalkylene aryl derivatives, process for preparation thereof, and use thereof for treatment of diseases” (Bayer Intellectual Property, priority 2009, dated 2015).
